For series [1] the following is noted: human, in vivo. The text has this: The Example summarizes the management of concentrations of the immunosuppressants, tacrolimus (TAC) and cyclosporine (CSA) during the treatment.
A short description of series [2]: Immunosuppressant blood concentrations in liver transplant recipients co-dosed with 3D. In kind it is in vivo, human. The method, then:
Patients (n=34) on stable TAC or CSA therapy, at least 12 months post-LT, fibrosis stage <F2, received 3D +RBV for 24 weeks. When co-dosed with 3D, it was recommended that the prestudy total CSA daily dose be reduced to one-fifth and given QD. For TAC, a dose of 0.5 mg/7 days or 0.2 mg/3 days was recommended. Subsequent dose and dosing frequency modifications in TAC were made based on the individual TAC levels. Observed CSA trough concentrations (Ctrough) were summarized for CSA recipients (n=5) while TAC data (n=29) were interrogated further to profile on-study TAC Ctroughs. A nonlinear mixed effects model was used to characterize TAC concentration-time profiles using NONMEM software. A one compartment pharmacokinetic (PK) model with first order oral absorption and between subject variability on apparent clearance was used to describe the TAC data. The model estimated TAC PK parameters were used to predict TAC concentration-time profiles in order to evaluate TAC dosing strategies when co-dosed with 3D.

The mark [3] stands for this setting: co-dosed with 3D, TAC dose 0.2-1 mg, CSA dose 25-75 mg, liver transplant recipients.

Take `C=CC[C@@H]1/C=C(\C)C[C@H](C)C[C@H](OC)[C@H]2O[C@@](O)(C(=O)C(=O)N3CCCC[C@H]3C(=O)O[C@H](/C(C)=C/[C@@H]3CC[C@@H](O)[C@H](OC)C3)[C@H](C)[C@@H](O)CC1=O)[C@H](C)C[C@@H]2OC` [TAC, tacrolimus]: in series [1], the “Increase in concentration 24 hours after co-dosing with 3D” value was 17 fold. In addition, the “Concentrations with recommended dose modifications” value in series [2] (LT recipients with GT1 HCV infection receiving 3D) is “within the therapeutic range”. Besides, in series [2] (setting [3]), the “Blood concentration, interquartile range (IQR)” value fell in the range of 3.3 to 6.6 ng/mL and the “Blood concentration, median” value turned out to be 4.6 ng/mL.

The record behind these values is US20150174194A1, “METHODS FOR TREATING LIVER TRANSPLANT RECIPIENTS” (AbbVie Inc., priority 2013, published 2015).
